Source: US7652037B2, “Methods of lowering lipid levels in a mammal” (City Of Hope, priority 2003, dated 2010)
Marks after values point to notes of the source that are not given here.

Legend:
Human LDL = assay: Cu++-mediated LDL oxidation, TBARS (Example 16); details: 250 μM compound, followed for 5 hours; control lag phase about 2 hours
Protocol: (§1) Human LDL was isolated from plasma of healthy donors by single vertical spin centrifugation (see Chung et al., Methods Enzymol. 128:181-209, 1986) and used within 24-48 hours of preparation. LDL (50 μg/mL) was incubated at 37° C. in 50 mM chelex-treated phosphate buffer, pH 7.4, alone or in the presence of 5 μM CuCl2 or 5 μM CuCl2 plus various concentrations of the LR compounds. After 5 hours of incubation, aliquots from each reaction mixture were removed for measurement of thiobarbituric acid-reacting substances (TBARS) as described in Satoh, Clin. Chim. Acta 90:37-43, 1978. Briefly, 250 μL of 20% trichloroacetic acid was added to 500 μL of sample aliquot, followed by 750 μL of 1% […]. The samples then were vortexed and incubated in a boiling water bath for 10 minutes. Upon cooling, the samples were centrifuged for 5 minutes at 5000 rpm. Absorbance of the supernatant was taken at 532 nm, and expressed as MDA equivalents using 1,1,3,3-tetramethoxypropane as standards. For fatty acid oxidation studies, linoleic acid (5#mM) was incubated alone or in the presence of 1 mM LR compound in […] phosphate buffer, pH 7.4, for 7 days at 37° C. Aliquots from each reaction mixture were withdrawn periodically for measurement of TBARS as described above.
Results are shown in FIG. 23A, where values are provided as means±SD of two independent experiments (n=4 for each treatment). In separate experiments, the time course for the oxidative modification fo LDL by Cu^++ in the presence of 250 μM compound was followed for 5 hours and aliquots for each time interval were assayed for TBARS. Values in FIG. 23B are means±SD of two independent experiments (n=4 per treatment).

STZ-Diabetic Rats [1] = assay: Tail tendon collagen crosslinking, fluorescence (pepsin digestion) and acid solubility; assay type: in vivo, rat; details: diabetic rats compared with untreated diabetic animals
Protocol: Isolation and preparation of tail tendon collagen was performed according to Kochakian et al., Diabetes 45:1694-1700, 1996. The relative degree of crosslinking and AGE formation in collagen was assessed by pepsin digestion and acid solubility. Pepsin digestion was performed as described previously by Stefek et al., Biochim. Biophys. Acta 1502:398-404, 2000. Briefly, collagen samples of 10 mg from individual rats were digested with pepsin (50 μg/mL in 0.5 mol/l acetic acid) for 24 hours at 37° C. After digestion, the samples were centrifuged at 3000 rpm for 30 minutes at 4° C. and the clear supernatant containing the digested collagen was collected. One hundred microliter aliquots of the supernatant were mixed with 900 μL PBS buffer for measurement of the fluorescence of the sample at 365 nm excitation and 418 nm emission. The hydroxyproline content of the supernatant was calculated following acid hydrolysis using a microassay method according to known methods (Creemers et al., Biotechniques 22:656-658, 1997).
The acid solubility of tail tendon collagen was measured by a modification of the method outlined in Yang et al., Arch. Biochem. Biophys. 412:42-46, 2003. Briefly, samples of about 2 mg collagen were weighed and solubilized in 0.05 M acetic acid overnight at 4° C. The suspensions were centrifuged at 20,000 g 60 minutes at 4° C. and the supernatants and pellets were separated for analysis of hydroxyproline content following acid hydrolysis. Acid solubility was calculated as the percentage of hydroxyproline in the supernatant divided by the total hydroxyproline content in the pellet and the supernatant.

[2] = Kinetics of linoleic acid oxidation, TBARS; details: 5 mM linoleic acid, 1 mM compound, pH 7.4, 7 days at 37° C.
Protocol: as §1
Aliquots were withdrawn periodically and assayed by the TBARS method as above. The MDA equivalent was estimated based on standards.

[3] = Inhibition of copper-catalyzed oxidation of ascorbic acid (Cu2+ chelating activity); details: 500 nmol/L CuCl2, 500 μmol/L ascorbic acid, phosphate buffer pH 7.4, 60 minutes; read-out: IC50, concentration that inhibited the rate of AA oxidation by 50%
Protocol: In vitro measurement of the kinetics of inhibition of copper-catalyzed oxidation of ascorbic acid was performed according to the methods of Price et al., J. Biol. Chem. 276:48967-48972, 2001. Briefly, CuCl2 and various concentrations of inhibitor compounds were pre-incubated in chelex-treated 20 mmol/L phosphate buffer, pH 7.4, for 5 minutes. Ascorbic acid then was added (50 μL of 10 mmol/L in water) to initiate the reaction (1 mL total reaction volume). The final concentrations of CuCl2 and ascorbic acid in the reaction were 500 nmol/L and 500 μmol/L, respectively. Aliquots (135 μL) were removed at 0 and 60 minutes and transferred to autoinjector vials containing 15 μL of 10 mmol/l DTPA. Samples were analyzed by reversed phase HPLC on an XTerra™ RP18 column (250 mm×4.6 mm, 5 μm) with an XTerra™ RP18 5 μm guard column using a Waters® 2690 Separator Module equipped with auto-injector and Millenium® 32 software. Solvents and gradient were all used as described in Dillon et al., Life Sci. 72:1583-1594, 2003. The absorbance of ascorbic acid was measured at 244 nm and the peak area was obtained to estimate the percent of ascorbic acid remaining versus time. For each inhibitor compound, the concentration that inhibited the rate of AA oxidation by 50% (IC50), was calculated with respect to the control using Prism™ software.

STZ-Diabetic Rats [4] = assay: Renal function parameters in STZ-diabetic rats (Example 3); assay type: in vivo, rat; details: for Plasma Creatine / Urinary Albumin / Urinary Albumin/Creatine Ratio: mean ± SD; for decrease of elevated plasma creatinine concentrations: diabetic rats
Protocol: Male Sprague-Dawley rats (about 175 to 200 g) were adapted for one week prior to treatment, then rendered diabetic by intra-peritoneal injection of STZ (65 mg/kg in citrate buffer, pH 4.5) after an overnight fast. Control (non-diabetic) animals were injected with the buffer only. Diabetes was confirmed by measuring the plasma glucose concentrations 7 days after Streptozotocin (STZ)-injection. Only animals with a plasma glucose concentration greater than 20 mmol were classified as diabetic and used in the study. These diabetic rats were divided randomly into an untreated diabetic control group and a diabetic treatment group. The treatment group received an LR compound at 50 mg/l in their drinking water throughout the duration of the study (32 weeks for LR-90; 30 weeks for LR-9 and LR-74). All animals were housed individually and were given free access to food and water.
Blood (from the tail vein) and urine samples were collected from rats for glycemic control analysis and albuminuria measurements. Glycemia was monitored every 8 weeks by measuring plasma glucose and glycated hemoglobin. Plasma or serum also was tested for total cholesterol and total triglycerides. Progression of renal dysfunction was assessed by measuring urinary albumin to creatinine ratio (UA/Cr) and serum or plasma creatinine. For measurement of urinary albumin and creatinine concentrations, rats were housed in metabolic cages for 24 hours and urine was collected in a collection beaker with several drops of toluene to inhibit microbial growth.
Urinary albumin, plasma creatinine concentration, and urinary albumin/creatine ratio (UA/Cr) were used as indicators of renal function.

[5] = STZ-diabetic (D) rats, 30 weeks
[6] = non-diabetic (ND) rats, 30 weeks
[7] = STZ-diabetic (D) rats, LR-90, 32 weeks
[8] = non-diabetic (ND) rats, LR-90, 32 weeks

IC50 [3] [µM] | Compound | time course of Cu++-mediated oxidation of LDL (Human LDL) | fluorescence and crosslinking of tail tendon collagen (pepsin digestion) (STZ-Diabetic Rats [1]) | linoleic acid (LA) oxidation, MDA equivalents [2] | Plasma Creatine (STZ-Diabetic Rats [4]; [5]) | Urinary Albumin (STZ-Diabetic Rats [4]; [5]) | Urinary Albumin/Creatine Ratio (STZ-Diabetic Rats [4]; [5]) | decrease of elevated plasma creatinine concentrations (STZ-Diabetic Rats [4]) [%] | Plasma Creatine (STZ-Diabetic Rats [4]; [6]) [mg/dL] | Urinary Albumin (STZ-Diabetic Rats [4]; [6]) [mg/24 hr] | Urinary Albumin/Creatine Ratio (STZ-Diabetic Rats [4]; [6]) | Plasma Creatine (STZ-Diabetic Rats [4]; [7]) | Urinary Albumin (STZ-Diabetic Rats [4]; [7]) | Urinary Albumin/Creatine Ratio (STZ-Diabetic Rats [4]; [7]) | Plasma Creatine (STZ-Diabetic Rats [4]; [8]) [mg/dL] | Urinary Albumin (STZ-Diabetic Rats [4]; [8]) [mg/24 hr] | Urinary Albumin/Creatine Ratio (STZ-Diabetic Rats [4]; [8])
200 | CC(C)(Oc1ccc(NC(=O)c2ccc3ccccc3c2)cc1)C(=O)O [LR-9, 4-(2-napthylcarboxamido) phenoxyisobutyric acid] | significantly inhibited the rate of oxidation after 2 hours | significant reduction | totally prevented LA oxidation | 1.79 ± 0.95^c mg/dl | 18.0 ± 9.1^c mg/24 hr | 1.36 ± 0.93^c | ~50 | 0.42 ± 0.02 | 4.8 ± 2.3 | 0.33 ± 0.13 | – | – | – | – | – | –
50 | CC(Oc1cccc2cccnc12)C(=O)O (stereo not drawn) [LR-74, 2-(8-quinolinoxy) propionic acid] | no observable propagation phase | significant reduction | did not totally prevent the oxidation | 1.64 ± 1.07^c mg/dl | 14.3 ± 9.07^c mg/24 hr | 1.23 ± 0.60^c | ~50 | 0.42 ± 0.05 | 4.6 ± 2.4 | 0.30 ± 0.16 | – | – | – | – | – | –
275 | methylene bis(4,4′-(2-chlorophenylureidophenoxyisobutyric acid) [LR-90] | no observable propagation phase | significant reduction | totally prevented LA oxidation | – | – | – | ~50 | – | – | – | 1.50 ± 0.53^c mg/dl | 23.6 ± 4.5^c mg/24 hr | 1.57 ± 0.49^c | 0.58 ± 0.07 | 8.9 ± 1.5 | 0.57 ± 0.16
